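Method: 48-hour compound exposure of cells in 96-well plates, five concentrations, linear interpolation of endpoints. The concentration for full growth arrest is given as TGI.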
Tests used:
Experiment in all cases: NCI-60 cell line screen, 48 h
[1] = tested on: OVCAR-3 ovarian
[2] = tested on: UO-31 renal
[3] = tested on: SR leukemia
[4] = tested on: SF-268 CNS
[5] = tested on: NCI-H226 lung
[6] = tested on: MDA-MB-231 breast
[7] = tested on: SK-MEL-5 melanoma
[8] = tested on: IGROV1 ovarian
[9] = tested on: SNB-19 CNS
[10] = tested on: CCRF-CEM leukemia

Row | Structure (SMILES) | TGI [1] [µM] | TGI [2] [µM] | TGI [3] [µM] | TGI [4] [µM] | TGI [5] [µM] | TGI [6] [µM] | TGI [7] [µM] | TGI [8] [µM] | TGI [9] [µM] | TGI [10] [µM]
1 | O=C1/C(=C\c2ccccc2)C(NC2CCCCC2)c2ccccc21 (stereo not given) | 2.51 | 2.31 | 0.473 | 13 | 14.1 | 5.2 | 6.65 | 10.4 | 22.5 | 0.294
2 | COC(=O)c1ccccc1CC1Cc2ccc3c(c2C1=O)CCCC3 (stereo not given) | > 100 | > 100 | 24.5 | > 100 | > 100 | > 100 | 34.8 | > 100 | > 100 | > 86.5
3 | Nc1nc(SCCc2ccccc2)c2[nH]cnc2n1 | > 100 | > 100 | > 100 | > 100 | > 100 | > 100 | > 100 | > 100 | > 100 | > 100
4 | O=C1CCCSC(=O)N1Cc1ccccc1 | > 100 | – | > 100 | > 100 | > 100 | > 100 | > 100 | > 100 | > 100 | > 100
5 | COc1cccc(C(=O)O[C@H]2[C@@H]3[C@]4(OC(C)=O)CO[C@@H]4C[C@H](O)[C@@]3(C)C(=O)[C@H](OC(C)=O)C3=C(C)[C@@H](OC(=O)[C@H](O)[C@@H](NC(=O)OC(C)(C)C)c4ccco4)C[C@]2(O)C3(C)C)c1 | < 0.00375 | > 35 | > 14.8 | > 37.5 | > 15.2 | > 37.5 | > 15.7 | > 37.5 | > 30 | 0.368
6 | COc1cc2c(c(OC)c1OC)C(=O)[C@@H]1[C@H]2N1C(N)=O | > 100 | > 100 | > 100 | > 100 | > 100 | > 100 | > 100 | > 100 | > 100 | > 100
7 | O=C1/C(=C/c2ccccc2)N=C2Sc3c(nc[nH]c3=O)N12 | > 100 | > 100 | 68 | > 100 | > 100 | > 100 | > 100 | > 100 | > 100 | > 100
8 | COc1cc(C(=O)N(C(=S)OCc2ccccn2)c2ccccc2)cc(OC)c1OC | > 100 | 86.5 | 49 | > 100 | > 100 | > 100 | > 100 | 79.6 | > 100 | > 100
9 | COc1ccc(COCCOCc2nc(C#N)c(N)o2)cc1 | > 100 | > 100 | > 100 | > 100 | > 100 | > 100 | > 100 | > 100 | – | > 100
10 | Cc1ccc(C(=O)O)cc1S(=O)(=O)Nn1cnc2ccc(S(=O)(=O)Nc3ccccc3C(=O)O)cc2c1=O | > 100 | > 100 | > 100 | > 100 | > 100 | > 100 | – | > 100 | > 100 | > 100
11 | O=C1C=CC(=O)c2c1ccc1c3ccccc3n(CCCCCCCCCCCCn3c4ccccc4c4ccc5c(c43)C(=O)C=CC5=O)c21 | > 100 | > 100 | > 100 | > 100 | > 100 | > 100 | > 100 | > 100 | > 100 | 74.1
12 | C=CCN1C[C@H](C)N([C@H](c2ccc(C(=O)NC(CC)CC)cc2)c2cccc(OC)c2)C[C@H]1C | > 100 | 52.7 | 44.4 | > 100 | > 100 | 75.6 | 32.4 | > 100 | > 100 | > 100
13 | COc1ccc(-c2cc(O)c3nc4ccccc4n3c2)cc1 | > 100 | > 100 | > 100 | > 100 | > 100 | > 100 | – | > 100 | > 100 | > 100
14 | Nn1c(-c2ccccc2)nn(C(=O)c2ccccc2)c1=O | > 100 | > 100 | > 100 | > 100 | > 100 | > 100 | > 100 | > 100 | > 100 | > 100
15 | C=CC1(C)CCC2C(=CCC3C2(C)CC(O)C(O)C3(C)COC2OC(C(=O)O)C(O)C(O)C2O)C1 (stereo not given) (tested in a mixture with another compound) | > 100 | > 100 | > 100 | > 100 | > 100 | > 100 | > 100 | > 100 | > 100 | > 100
16 | O=c1c2cc([N+](=O)[O-])cnc2sn1-c1ccc([N+](=O)[O-])cc1 | > 100 | > 100 | 54.6 | 67.6 | > 100 | 53.6 | > 100 | > 100 | > 100 | 82.2
17 | COc1ccc(C2CC(c3c(O)ccc4ccccc34)=NN2C(C)=O)cc1OC (stereo not given) | 69.6 | 83.3 | 40.6 | > 100 | > 100 | 56.5 | 71.8 | > 100 | – | 36.6
18 | S=C1Nc2ccccc2SC1c1ccccc1 (stereo not given) | > 100 | > 100 | > 100 | > 100 | > 100 | > 100 | > 100 | > 100 | > 100 | > 100
19 | COC(=O)c1cc(=O)nc2sc3cccc(C)c3n12 | 82.8 | – | > 100 | > 100 | > 100 | > 100 | > 100 | > 100 | > 100 | > 100
20 | Cc1ccc(-c2n[nH]c(=O)n2N2C(=O)c3ccccc3C2=O)cc1 | > 100 | > 100 | > 100 | > 100 | > 100 | > 100 | > 100 | > 100 | > 100 | –

Row | Structure (SMILES) | TGI [1] [µM] | TGI [2] [µM] | TGI [3] [µM] | TGI [4] [µM] | TGI [5] [µM] | TGI [6] [µM] | TGI [7] [µM] | TGI [8] [µM] | TGI [9] [µM] | TGI [10] [µM]
21 | CC(C)(C)OC(=O)NCCCCC1NC(=O)[C@@H]2Cc3c([nH]c4ccccc34)C(C3CCCCC3)N2C1=O (stereo not given in full) | 47.5 | > 100 | 36.8 | > 100 | > 100 | > 100 | > 100 | > 100 | > 100 | –
22 | O=c1[nH]c(Nc2cccc(CC(F)(F)F)c2)nc2nc[nH]c12 | > 100 | > 100 | > 100 | > 100 | > 100 | > 100 | > 100 | > 100 | > 100 | > 100
23 | COc1ccc2c(c1)/C(=C/CCN(C)C)c1ccccc1S2 | > 100 | 88.6 | > 100 | > 100 | > 100 | > 100 | 31.7 | – | > 100 | > 100
24 | COC(=O)c1c(C)cccc1C1CN=NC12Cc1ccc(C)cc1C2=O (stereo not given) | > 100 | > 100 | > 100 | > 100 | > 100 | > 100 | 44.1 | > 100 | > 100 | > 100
25 | N#CC1(C#N)N[C@@H](c2ccsc2)[C@H]2C(=O)N(c3ccccc3)C(=O)[C@H]21 | > 100 | > 100 | 78.7 | > 100 | > 100 | > 100 | > 100 | > 100 | – | –
26 | c1csc(-c2ccc(-c3cccc4nsnc34)s2)c1 | > 100 | > 100 | 52.2 | > 100 | > 100 | > 100 | > 100 | – | > 100 | 69.3
27 | NC(=O)NCCCC(NC(=O)OCCCCn1ccc(=O)[nH]c1=O)C(=O)O (stereo not given) | > 100 | > 100 | > 100 | > 100 | > 100 | > 100 | – | > 100 | > 100 | > 100
28 | C[C@]12CCC(O)CC1=CC[C@@H]1[C@@H]2CC[C@]2(C)C(=O)[C@H](n3ccnc3)C[C@@H]12 (stereo not given in full) | > 100 | > 100 | > 100 | > 100 | > 100 | > 100 | 45.2 | > 100 | > 100 | > 100
29 | CCCN(C(=O)c1ccccc1)C(C#N)c1ccc(C(C#N)N(CCC)C(=O)c2ccccc2)cc1 (stereo not given) | > 100 | > 100 | > 100 | > 100 | 65.3 | > 100 | > 100 | > 100 | 74.9 | > 100
30 | NC(N)=N/N=C/c1c(-c2ccc(N)cc2)nc2sccn12 | 67.3 | 39.2 | 89.3 | > 100 | > 100 | 48.4 | > 100 | > 100 | 69.1 | > 100
31 | Nc1nc(Cl)cc(NCC2(CO)CC(=O)C2)n1 | > 100 | > 100 | > 100 | > 100 | > 100 | > 100 | > 100 | > 100 | > 100 | > 100
32 | Cc1nc2n(c1/C=C1/C(=O)Nc3cccc(Cl)c31)CCS2 | > 100 | > 100 | > 100 | 52.1 | – | 52.5 | > 100 | > 100 | 62.5 | > 100
33 | Cc1ccccc1C(=O)N1CCc2c([nH]c3ccccc23)C1 | 74.1 | > 100 | 50 | > 100 | 65 | 34.1 | 29.6 | > 100 | > 100 | 74
34 | C[C@@H](NC(=O)[C@@H]1C[C@]1(C)COC(=O)c1cc([N+](=O)[O-])cc([N+](=O)[O-])c1)c1cccc2ccccc12 | > 100 | > 100 | > 100 | > 100 | > 100 | > 100 | > 100 | > 100 | > 100 | > 100
35 | [N-]=[N+]=NC[C@H]1OCO[C@H](CN=[N+]=[N-])[C@@H](OCCOCCCl)[C@@H]1OCCOCCCl | > 100 | 57.2 | > 100 | > 100 | > 100 | > 100 | > 100 | > 100 | > 100 | > 100
36 | c1ccc(N=c2sc3ccccc3nc2Nc2ccccc2)cc1 | – | > 100 | > 100 | > 100 | > 100 | > 100 | > 100 | > 100 | > 100 | > 100
37 | COc1ccc2cc(NC(=O)N/N=C\c3ccc([N+](=O)[O-])cc3)ccc2c1 | > 100 | 46.4 | > 100 | 55.4 | > 100 | > 100 | > 100 | > 100 | 47.9 | > 100
38 | Cc1ccc(N=NC(=Nc2ccccc2)c2ccc(N(CCC#N)CCC#N)cc2)cc1 | 75.1 | > 100 | > 100 | > 100 | > 100 | 55.8 | 47 | 57.1 | > 100 | > 100
39 | CCCCCCc1cc2cc(-c3csc(CC#N)n3)c(=O)oc2cc1O | > 100 | > 78.6 | > 100 | > 100 | > 71.1 | 55.2 | > 100 | > 100 | > 100 | > 100
40 | CN1C(=O)C2CCC(=O)N2c2cccnc21 (stereo not given) | > 100 | > 100 | > 100 | > 100 | > 100 | > 100 | > 100 | > 100 | > 100 | > 100

From PubChem BioAssay (NCI)
